Measurements from US7875600B2, “Pyrimidine compounds as purine receptor antagonist” (Vernalis (R&D) Limited, priority 2004, dated 2011).

Experiments:
[1] = target: human adenosine A2A receptors (Homo sapiens, UniProt P29274); assay: Binding affinities at hA2A receptors, displacement of [3H]-CGS 21680; conditions: human adenosine A2A receptor, [3H]-CGS 21680 displacement
Text: Adenosine Receptor Binding Binding Affinities at hA2A Receptors
The compounds were examined in an assay measuring in vitro binding to human adenosine A2A receptors by determining the displacement of the adenosine A2A receptor selective radioligand [^3H]-CGS 21680 using standard techniques.

[2] = tested on: haloperidol-induced deficits in locomotor activity in mice; assay: Haloperidol-induced hypolocomotion model; format: in vivo; conditions: oral, dose of 30 mg/kg
Text: Haloperidol-Induced Hypolocomotion Model
This approach is also considered a valid method for screening drugs with potential antiparkinsonian effects. Thus, the ability of novel adenosine antagonists to block haloperidol-induced deficits in locomotor activity in mice can be used to assess both in vivo and potential antiparkinsonian efficacy.
Female TO mice (25-30 g) obtained from Harlan, UK, are used for all experiments. Animals are housed in groups of 8 [cage size—40 (width)×40 (length)×20 (height) cm] under 12 h light/dark cycle (lights on 08:00 hr), in a temperature (20±2° C.) and humidity (55±15%) controlled environment. Animals have free access to food and water, and are allowed at least 3 days to acclimatize after delivery before experimental use.
Liquid injectable haloperidol (1 ml Serenance ampoules from Baker Norton, Harlow, Essex, each containing haloperidol BP 5 mg) are diluted to a final concentration of 0.02 mg/ml using saline. Test compounds are typically prepared as aqueous suspensions in 1% methyl cellulose. All compounds are administered orally in a volume of 10 ml/kg.
1.5 h before testing, mice are administered 0.2 mg/kg haloperidol, a dose that reduces baseline locomotor activity by at least 50%. […] Horizontal locomotor activity is determined by placing the cages within a frame containing a 4×7 array of photocells linked to a computer, which tabulates beam breaks. […]

[3] = tested on: cataleptic responses; conditions: cited from earlier work
[4] = tested on: Parkinsonian patients; conditions: 15 Parkinsonian patients, up to 12 weeks, 150 mg/day oral; cited from earlier work

human adenosine A2A receptors, sequence (P29274 whole entry): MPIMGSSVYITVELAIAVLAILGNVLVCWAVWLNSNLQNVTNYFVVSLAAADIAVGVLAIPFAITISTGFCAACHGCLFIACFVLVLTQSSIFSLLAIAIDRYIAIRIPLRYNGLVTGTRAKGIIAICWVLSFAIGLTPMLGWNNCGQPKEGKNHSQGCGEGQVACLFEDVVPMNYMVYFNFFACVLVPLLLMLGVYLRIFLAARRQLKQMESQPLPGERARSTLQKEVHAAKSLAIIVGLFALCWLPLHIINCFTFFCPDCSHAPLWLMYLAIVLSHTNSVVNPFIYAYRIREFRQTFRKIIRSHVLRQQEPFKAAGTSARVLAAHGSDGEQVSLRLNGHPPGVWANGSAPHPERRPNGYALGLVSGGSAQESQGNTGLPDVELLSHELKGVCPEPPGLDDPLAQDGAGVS

Nc1nc(C(=O)NCc2ccccc2F)cc(-c2ccco2)n1 [Example 1, 2-Amino-N-(2-fluorobenzyl)-6-(2-furyl)pyrimidine-4-carboxamide]
Ki [1]: < 50 nM
activity in haloperidol-induced hypolocomotion model [2]: orally active

COCc1cccc(CNC(=O)c2nc(N)nc(-c3ccc(C)o3)c2Br)n1 [Example 117, 2-Amino-5-bromo-N-(6-methoxymethylpyridin-2-ylmethyl)-6-(5-methyl-2-furyl)pyrimidine-4-carboxamide]
melting point: 193.5 to 195.1 °C

CCCn1c(=O)c2c(nc(/C=C/c3ccc(OC)c(OC)c3)n2C)n(CCC)c1=O [KF 17837, (E)-8-(3,4-dimethoxystyryl)-1,3-dipropyl-7-methylxanthine]
anticataleptic effects of a subthreshold dose of L-DOPA plus benserazide ([3]; in vivo): potentiated
catalepsy induced by haloperidol and reserpine ([3]; in vivo): reduced
cataleptic responses induced by intracerebroventricular CGS 21680 ([3]; oral administration): significantly ameliorated

Cn1c(=O)c2[nH]cnc2n(C)c1=O [theophylline, 1,3-dimethylxanthine]
mean objective disability scores [4]: significant improvements
